Laboratory results taken from ChEMBL document CHEMBL4024717, “Anthranilamide-based 2-phenylcyclopropane-1-carboxamides, 1,1'-biphenyl-4-carboxamides and 1,1'-biphenyl-2-carboxamides: Synthesis biological evaluation and mechanism of action” (Eur J Med Chem, 2017).
Activity calls are given as the source filed them. The rule behind the calls is not given here.

What was measured:
K562 [1] = assay: Growth inhibition of human K562 cells at 10 uM after 24 hrs by MTT assay relative to control; assay type: functional; settings: K562, 24 h, read-out: GI
K562 [2] = assay: Cytotoxicity against human K562 cells after 24 hrs by MTT assay; assay type: functional, cell-based; settings: K562, 24 h
K562 [3] = assay: Cell cycle arrest in human K562 cells assessed as accumulation at sub G0/G1 phase at 750 nM after 48 hrs by propidium iodide staining based flow cytometry (reference value: 1.1%); assay type: functional
K562 [4] = assay: Induction of apoptosis in human K562 cells assessed as cell shrinkage at 0.75 to 2.5 uM after 24 to 48 hrs by Hoechst 33342/DAPI staining based fluorescence microscopic analysis; assay type: functional
[5] = target: Serine-protein kinase ATM (Homo sapiens) (UniProt Q13315); assay: Activation of ATM phosphorylation in human K562 cells assessed as ratio of phosphorylated H2AX at S139 to beta-tubulin level at 2.5 uM after 48 hrs by Western blot analysis (reference value: 0.8); assay type: cell-based
Sequence of Serine-protein kinase ATM (Homo sapiens) (Q13315 whole entry, the tested form may be a part): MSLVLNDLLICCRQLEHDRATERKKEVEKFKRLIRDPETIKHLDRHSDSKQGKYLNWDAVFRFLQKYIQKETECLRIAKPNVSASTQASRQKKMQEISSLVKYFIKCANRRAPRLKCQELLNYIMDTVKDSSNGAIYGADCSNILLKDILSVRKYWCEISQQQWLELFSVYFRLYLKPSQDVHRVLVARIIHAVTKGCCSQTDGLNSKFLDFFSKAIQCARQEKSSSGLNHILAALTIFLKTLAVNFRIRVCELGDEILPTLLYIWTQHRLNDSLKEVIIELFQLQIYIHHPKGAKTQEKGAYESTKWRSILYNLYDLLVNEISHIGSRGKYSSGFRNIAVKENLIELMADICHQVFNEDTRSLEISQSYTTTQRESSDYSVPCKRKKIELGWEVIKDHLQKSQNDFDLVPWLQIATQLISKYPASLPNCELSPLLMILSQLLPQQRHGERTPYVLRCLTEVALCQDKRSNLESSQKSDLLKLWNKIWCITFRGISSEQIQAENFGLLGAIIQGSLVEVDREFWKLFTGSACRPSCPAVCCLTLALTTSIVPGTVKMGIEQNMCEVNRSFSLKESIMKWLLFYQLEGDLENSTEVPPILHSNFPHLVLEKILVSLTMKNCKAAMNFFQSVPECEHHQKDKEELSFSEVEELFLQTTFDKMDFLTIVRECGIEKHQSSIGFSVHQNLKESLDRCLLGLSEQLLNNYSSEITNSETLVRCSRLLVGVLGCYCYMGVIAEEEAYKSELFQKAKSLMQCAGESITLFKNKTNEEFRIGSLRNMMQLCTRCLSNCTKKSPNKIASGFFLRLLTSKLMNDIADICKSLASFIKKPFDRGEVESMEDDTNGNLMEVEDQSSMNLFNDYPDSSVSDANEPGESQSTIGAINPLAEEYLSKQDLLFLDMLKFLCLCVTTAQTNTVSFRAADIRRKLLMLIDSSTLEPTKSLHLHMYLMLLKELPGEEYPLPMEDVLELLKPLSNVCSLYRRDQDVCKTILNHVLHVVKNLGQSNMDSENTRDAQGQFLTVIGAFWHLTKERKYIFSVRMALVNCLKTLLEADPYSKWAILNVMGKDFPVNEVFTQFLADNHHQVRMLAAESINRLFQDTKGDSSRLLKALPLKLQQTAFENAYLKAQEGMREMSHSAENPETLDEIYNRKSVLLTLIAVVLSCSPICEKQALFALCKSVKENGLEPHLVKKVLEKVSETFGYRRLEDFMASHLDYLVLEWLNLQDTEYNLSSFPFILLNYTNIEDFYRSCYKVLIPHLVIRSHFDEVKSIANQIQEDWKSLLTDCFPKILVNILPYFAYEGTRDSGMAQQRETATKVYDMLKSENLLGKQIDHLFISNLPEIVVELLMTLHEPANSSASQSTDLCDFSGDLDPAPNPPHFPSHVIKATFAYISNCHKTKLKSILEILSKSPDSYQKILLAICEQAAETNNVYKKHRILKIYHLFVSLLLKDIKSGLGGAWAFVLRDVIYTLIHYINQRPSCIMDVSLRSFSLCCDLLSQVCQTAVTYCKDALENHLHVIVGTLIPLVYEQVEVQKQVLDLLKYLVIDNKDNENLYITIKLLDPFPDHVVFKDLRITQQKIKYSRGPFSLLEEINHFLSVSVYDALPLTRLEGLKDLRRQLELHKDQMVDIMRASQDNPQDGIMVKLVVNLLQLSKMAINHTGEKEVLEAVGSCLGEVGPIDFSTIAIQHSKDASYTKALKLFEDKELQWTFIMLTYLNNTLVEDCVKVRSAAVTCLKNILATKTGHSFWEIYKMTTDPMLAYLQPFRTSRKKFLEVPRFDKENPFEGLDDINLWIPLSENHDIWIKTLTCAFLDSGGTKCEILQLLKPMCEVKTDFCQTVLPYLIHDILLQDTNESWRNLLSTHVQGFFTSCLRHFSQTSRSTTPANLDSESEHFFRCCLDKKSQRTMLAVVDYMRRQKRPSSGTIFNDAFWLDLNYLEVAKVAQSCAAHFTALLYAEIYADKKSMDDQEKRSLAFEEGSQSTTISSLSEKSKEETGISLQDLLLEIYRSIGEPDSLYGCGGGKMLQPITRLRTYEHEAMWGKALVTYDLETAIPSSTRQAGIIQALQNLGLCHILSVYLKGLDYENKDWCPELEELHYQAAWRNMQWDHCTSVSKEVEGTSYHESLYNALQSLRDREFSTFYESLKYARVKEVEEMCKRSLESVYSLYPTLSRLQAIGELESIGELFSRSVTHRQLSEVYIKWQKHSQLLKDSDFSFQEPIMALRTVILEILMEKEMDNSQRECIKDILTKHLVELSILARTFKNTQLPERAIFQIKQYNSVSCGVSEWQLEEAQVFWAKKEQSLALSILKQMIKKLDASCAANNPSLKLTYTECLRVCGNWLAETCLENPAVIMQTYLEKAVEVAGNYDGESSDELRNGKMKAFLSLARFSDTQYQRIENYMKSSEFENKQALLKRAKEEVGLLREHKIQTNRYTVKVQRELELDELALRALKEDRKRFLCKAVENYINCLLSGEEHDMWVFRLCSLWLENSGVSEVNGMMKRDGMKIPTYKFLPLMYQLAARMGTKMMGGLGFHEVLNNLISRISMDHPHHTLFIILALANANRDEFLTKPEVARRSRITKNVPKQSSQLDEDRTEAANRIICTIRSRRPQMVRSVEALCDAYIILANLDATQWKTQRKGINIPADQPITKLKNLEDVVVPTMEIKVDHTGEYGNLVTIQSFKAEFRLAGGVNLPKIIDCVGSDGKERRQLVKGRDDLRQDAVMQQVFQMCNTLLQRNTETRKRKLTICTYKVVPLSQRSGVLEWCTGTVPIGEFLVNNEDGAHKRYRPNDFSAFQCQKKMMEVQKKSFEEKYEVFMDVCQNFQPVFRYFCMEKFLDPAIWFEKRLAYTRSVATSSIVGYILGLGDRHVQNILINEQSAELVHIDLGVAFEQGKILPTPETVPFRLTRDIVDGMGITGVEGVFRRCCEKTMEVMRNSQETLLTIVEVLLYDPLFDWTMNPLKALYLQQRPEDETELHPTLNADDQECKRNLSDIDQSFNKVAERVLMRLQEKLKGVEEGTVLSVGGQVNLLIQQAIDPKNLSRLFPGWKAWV

K562 [6] = assay: Induction of morphological changes in human K562 cells assessed as cellular fragmentation at 0.75 to 2.5 uM after 48 hrs by light microscopic method; assay type: functional, cell-based
[7] = target: Serine-protein kinase ATM (Homo sapiens) (UniProt Q13315); assay: Activation of ATM phosphorylation in human K562 cells assessed as ratio of phosphorylated H2AX at S139 to beta-tubulin level at 750 nM after 24 hrs by Western blot analysis (reference value: 1); assay type: cell-based
[8] = Selectivity index, ratio of IC50 for human 16HBE cells to IC50 for human MDA-MB-231 cells; assay type: functional
16HBE14o- = assay: Cytotoxicity against human 16HBE cells after 24 hrs by MTT assay; assay type: cell-based
K562 [9] = assay: Cell cycle arrest in human K562 cells assessed as accumulation at sub G0/G1 phase at 750 nM after 24 hrs by propidium iodide staining based flow cytometry (reference value: 3.1%); assay type: functional
[10] = target: Serine-protein kinase ATM (Homo sapiens) (UniProt Q13315); assay: Activation of ATM phosphorylation in human K562 cells assessed as ratio of phosphorylated ATM to beta-tubulin level at 2.5 uM after 48 hrs by Western blot analysis (reference value: 0.2); assay type: cell-based
[11] = target: Serine-protein kinase ATM (Homo sapiens) (UniProt Q13315); assay: Activation of ATM phosphorylation in human K562 cells assessed as ratio of phosphorylated ATM to beta-tubulin level at 750 nM after 48 hrs by Western blot analysis (reference value: 0.2); assay type: cell-based
[12] = target: T1, c-Jun N-terminal kinase, JNK (Homo sapiens) (UniProt P45983+P53779+P45984); assay: Induction of JNK phosphorylation in human K562 cells assessed as ratio of phosphorylated JNK to beta-tubulin at 750 nM after 48 hrs by Western blot analysis (reference value: 1); assay type: cell-based
K562 [13] = assay: Induction of apoptosis in human K562 cells assessed as ratio of procaspase-3 to beta actin level at 2.5 uM after 48 hrs by Western blot analysis (reference value: 0.9); assay type: functional
K562 [14] = assay: Cell cycle arrest in human K562 cells assessed as accumulation at G0/G1 phase at 2.5 uM after 24 hrs by propidium iodide staining based flow cytometry (reference value: 68.8%); assay type: functional
K562 [15] = assay: Cell cycle arrest in human K562 cells assessed as accumulation at sub G0/G1 phase at 2.5 uM after 48 hrs by propidium iodide staining based flow cytometry (reference value: 1.1%); assay type: functional
K562 [16] = assay: Induction of reactive oxygen species generation in human K562 cells at 0.75 to 2.5 uM after 48 hrs by H2DCFDA staining based fluorescence microscopic analysis; assay type: functional, cell-based
K562 [17] = assay: Induction of apoptosis in human K562 cells assessed as ratio of procaspase-3 to beta actin level at 750 nM after 48 hrs by Western blot analysis (reference value: 0.9); assay type: functional
[18] = target: Serine-protein kinase ATM (Homo sapiens) (UniProt Q13315); assay: Activation of ATM phosphorylation in human K562 cells assessed as ratio of phosphorylated H2AX at S139 to beta-tubulin level at 750 nM after 48 hrs by Western blot analysis (reference value: 0.8); assay type: cell-based
K562 [19] = assay: Cell cycle arrest in human K562 cells assessed as accumulation at G2/M phase at 750 nM after 24 hrs by propidium iodide staining based flow cytometry (reference value: 13.3%); assay type: functional
[20] = target: Serine-protein kinase ATM (Homo sapiens) (UniProt Q13315); assay: Activation of ATM phosphorylation in human K562 cells assessed as ratio of phosphorylated ATM to beta-tubulin level at 2.5 uM after 24 hrs by Western blot analysis (reference value: 0.2); assay type: cell-based
K562 [21] = assay: Cell cycle arrest in human K562 cells assessed as accumulation at G2/M phase at 750 nM after 48 hrs by propidium iodide staining based flow cytometry (reference value: 17.7%); assay type: functional
K562 [22] = assay: Induction of morphological changes in human K562 cells assessed as reduction in cell volume at 0.75 to 2.5 uM after 24 hrs by light microscopic method; assay type: functional, cell-based
[23] = Selectivity index, ratio of IC50 for human 16HBE cells to IC50 for human K562 cells; assay type: functional
HT-29 = assay: Cytotoxicity against human HT-29 cells after 24 hrs by MTT assay; assay type: functional, cell-based; settings: HT-29, 24 h
[24] = target: T1, c-Jun N-terminal kinase, JNK (Homo sapiens); assay: Induction of JNK phosphorylation in human K562 cells assessed as ratio of phosphorylated JNK to beta-tubulin at 750 nM after 24 hrs by Western blot analysis (reference value: 1); assay type: cell-based
[25] = target: Serine-protein kinase ATM (Homo sapiens) (UniProt Q13315); assay: Activation of ATM phosphorylation in human K562 cells assessed as ratio of phosphorylated ATM to beta-tubulin level at 750 nM after 24 hrs by Western blot analysis (reference value: 0.2); assay type: cell-based
[26] = target: T1, c-Jun N-terminal kinase, JNK (Homo sapiens); assay: Induction of JNK phosphorylation in human K562 cells assessed as ratio of phosphorylated JNK to beta-tubulin at 2.5 uM after 48 hrs by Western blot analysis (reference value: 1); assay type: cell-based
K562 [27] = assay: Induction of apoptosis in human K562 cells assessed as ratio of procaspase-3 to beta actin level at 2.5 uM after 24 hrs by Western blot analysis (reference value: 1); assay type: functional
K562 [28] = assay: Cell cycle arrest in human K562 cells assessed as accumulation at G2/M phase at 2.5 uM after 24 hrs by propidium iodide staining based flow cytometry (reference value: 13.3%); assay type: functional
K562 [29] = assay: Cell cycle arrest in human K562 cells assessed as accumulation at G0/G1 phase at 750 nM after 24 hrs by propidium iodide staining based flow cytometry (reference value: 68.8%); assay type: functional
K562 [30] = assay: Cell cycle arrest in human K562 cells assessed as accumulation at G2/M phase at 2.5 uM after 48 hrs by propidium iodide staining based flow cytometry (reference value: 17.7%); assay type: functional
MDA-MB-231 = assay: Cytotoxicity against human MDA-MB-231 cells after 24 hrs by MTT assay; assay type: functional, cell-based; settings: MDA-MB-231, 24 h
K562 [31] = assay: Induction of reactive oxygen species generation in human K562 cells at 0.75 to 2.5 uM after 5 to 24 hrs by H2DCFDA staining based fluorescence microscopic analysis; assay type: functional, cell-based
K562 [32] = assay: Induction of apoptosis in human K562 cells assessed as chromatin condensation at 0.75 to 2.5 uM after 24 to 48 hrs by Hoechst 33342/DAPI staining based fluorescence microscopic analysis; assay type: functional, cell-based
K562 [33] = assay: Cytotoxicity against human K562 cells after 48 hrs by MTT assay; assay type: functional, cell-based; settings: K562, 48 h
[34] = Selectivity index, ratio of IC50 for human 16HBE cells to IC50 for human HT-29 cells; assay type: functional
K562 [35] = assay: Induction of apoptosis in human K562 cells assessed as ratio of procaspase-3 to beta actin level at 750 nM after 24 hrs by Western blot analysis (reference value: 1); assay type: functional
K562 [36] = assay: Induction of morphological changes in human K562 cells assessed as appearance of shrunken cytoplasm at 0.75 to 2.5 uM after 24 hrs by light microscopic method; assay type: functional, cell-based
[37] = target: Serine-protein kinase ATM (Homo sapiens) (UniProt Q13315); assay: Activation of ATM phosphorylation in human K562 cells assessed as ratio of phosphorylated H2AX at S139 to beta-tubulin level at 2.5 uM after 24 hrs by Western blot analysis (reference value: 1); assay type: cell-based
K562 [38] = assay: Induction of morphological changes in human K562 cells assessed as reduction in cell number at 0.75 to 2.5 uM after 24 hrs by light microscopic method; assay type: functional, cell-based
K562 [39] = assay: Cell cycle arrest in human K562 cells assessed as accumulation at G0/G1 phase at 750 nM after 48 hrs by propidium iodide staining based flow cytometry (reference value: 67.4%); assay type: functional
[40] = target: T1, c-Jun N-terminal kinase, JNK (Homo sapiens); assay: Induction of JNK phosphorylation in human K562 cells assessed as ratio of phosphorylated JNK to beta-tubulin at 2.5 uM after 24 hrs by Western blot analysis (reference value: 1); assay type: cell-based
K562 [41] = assay: Induction of apoptosis in human K562 cells assessed as DNA fragmentation at 0.75 to 2.5 uM after 24 to 48 hrs by Hoechst 33342/DAPI staining based fluorescence microscopic analysis; assay type: functional, cell-based
K562 [42] = assay: Cell cycle arrest in human K562 cells assessed as accumulation at sub G0/G1 phase at 2.5 uM after 24 hrs by propidium iodide staining based flow cytometry (reference value: 3.1%); assay type: functional
K562 [43] = assay: Cell cycle arrest in human K562 cells assessed as accumulation at G0/G1 phase at 2.5 uM after 48 hrs by propidium iodide staining based flow cytometry (reference value: 67.4%); assay type: functional

COc1cc2c(c(OC)c1OC)-c1ccc(OC)c(=O)cc1[C@@H](NC(C)=O)CC2 [COLCHICINE]
inhibition of growth at 10 µM (K562 [1]): 63.6%

NC(=O)c1ccccc1NC(=O)c1ccccc1-c1ccccc1
inhibition of growth at 10 µM (K562 [1]): 44.6%

NC(=O)c1cc(Cl)ccc1NC(=O)[C@@H]1C[C@H]1c1ccccc1
inhibition of growth at 10 µM (K562 [1]): 24%

COc1cc(NC(=O)c2ccccc2-c2ccccc2)c(C(N)=O)cc1OC
inhibition of growth at 10 µM (K562 [1]): 46%

Cc1ccc(NC(=O)c2ccccc2-c2ccccc2)c(C(N)=O)c1
inhibition of growth at 10 µM (K562 [1]): 48.9%

COc1cc(NC(=O)c2ccc(-c3ccccc3)cc2)c(C(N)=O)cc1OC
inhibition of growth at 10 µM (K562 [1]): 48%

Cc1ccc(NC(=O)[C@@H]2C[C@H]2c2ccccc2)c(C(N)=O)c1
inhibition of growth at 10 µM (K562 [1]): 15%

NC(=O)c1ccccc1NC(=O)[C@@H]1C[C@H]1c1ccccc1
inhibition of growth at 10 µM (K562 [1]): < 10%

COc1cc(NC(=O)[C@@H]2C[C@H]2c2ccccc2)c(C(N)=O)cc1OC
inhibition of growth at 10 µM (K562 [1]): 26.7%

NC(=O)c1cc(Cl)ccc1NC(=O)c1ccccc1-c1ccccc1
inhibition of growth at 10 µM (K562 [1]): 47.3%

NC(=O)c1cc(I)ccc1NC(=O)c1ccccc1-c1ccccc1
IC50 (K562 [2]): 0.5 µM
Activity (K562 [3]): 4%
Activity (K562 [4]): Active
Ratio [5]: 1.6
Activity (K562 [6]): Active
Ratio [7]: 1.5
Ratio IC50 [8]: 3
IC50 (16HBE14o-): 30 µM
Activity (K562 [9]): 2.7%
Ratio [10]: 0.9
Ratio [11]: 0.5
Ratio [12]: 1.2
Ratio (K562 [13]): 0.5
Activity (K562 [14]): 14.9%
Activity (K562 [15]): 26.2%
Activity (K562 [16]): Active
Ratio (K562 [17]): 0.5
Ratio [18]: 2.2
Activity (K562 [19]): 37.1%
Ratio [20]: 2.5
Activity (K562 [21]): 30.5%
Activity (K562 [22]): Active
Ratio IC50 [23]: 60
IC50 (HT-29): 10 µM
Ratio [24]: 0.8
Ratio [25]: 1
Ratio [26]: 1.4
Ratio (K562 [27]): 0.8
inhibition of growth at 10 µM (K562 [1]): 85%
Activity (K562 [28]): 74.6%
Activity (K562 [29]): 54.9%
Activity (K562 [30]): 13.4%
IC50 (MDA-MB-231): 10 µM
Activity (K562 [31]): inactive
Activity (K562 [32]): Active
IC50 (K562 [33]): 0.5 µM
Ratio IC50 [34]: 3
Ratio (K562 [35]): 0.8
Activity (K562 [36]): Active
Ratio [37]: 2.1
Activity (K562 [38]): Active
Activity (K562 [39]): 48.6%
Ratio [40]: 1.2
Activity (K562 [41]): Active
Activity (K562 [42]): 2.2%
Activity (K562 [43]): 50.5%

NC(=O)c1ccccc1NC(=O)c1ccc(-c2ccccc2)cc1
inhibition of growth at 10 µM (K562 [1]): 21.6%

COc1ccc(NC(=O)c2ccc(-c3ccccc3)cc2)c(C(N)=O)c1
inhibition of growth at 10 µM (K562 [1]): 29.2%

COc1ccc(NC(=O)c2ccccc2-c2ccccc2)c(C(N)=O)c1
inhibition of growth at 10 µM (K562 [1]): 37%

NC(=O)c1cc(I)ccc1NC(=O)[C@@H]1C[C@H]1c1ccccc1
inhibition of growth at 10 µM (K562 [1]): 25%
IC50 (K562 [33]): 10 µM

COc1ccc(NC(=O)[C@@H]2C[C@H]2c2ccccc2)c(C(N)=O)c1
inhibition of growth at 10 µM (K562 [1]): 26.7%

NC(=O)c1cc(I)ccc1NC(=O)c1ccc(-c2ccccc2)cc1
inhibition of growth at 10 µM (K562 [1]): 15%
IC50 (K562 [33]): 15 µM

NC(=O)c1cc(Cl)ccc1NC(=O)c1ccc(-c2ccccc2)cc1
inhibition of growth at 10 µM (K562 [1]): 45%

Cc1ccc(NC(=O)c2ccc(-c3ccccc3)cc2)c(C(N)=O)c1
inhibition of growth at 10 µM (K562 [1]): 39.7%
